Source: a melting point compilation (Tetko et al.; mined from patent text by program, amines drawn as free bases though some values may be those of a salt)

Compound	melting point
CN1CCNCCNCCNCCNCC1	71 to 72.5 °C
CC(C)CCn1cc([N+](=O)[O-])cc1C(=O)O	154 to 157 °C
N#Cc1ccc(-c2ccc(OCCC(=O)NO)cc2)cc1	114 to 118 °C
O=[N+]([O-])c1ccc(Nc2ccccn2)c(C(F)(F)F)c1	83 to 84 °C
CCOC(=O)c1cnc2c3c(ccc2c1)C(=O)CC=N3	250 to 252 °C
NCCc1coc2ccc3c(c12)CCCO3	110 °C
COC1(c2cc(F)cc(Sc3ccc(C(C)ONC(N)=O)cc3)c2)CCOCC1 (stereo not drawn)	84 to 85 °C
CCOC(=O)c1ccc2c(c1)C(C)(Cl)C(=S)N2 (stereo not drawn)	205 to 207 °C
COC(OC)C(=O)C=Cc1ccc(-c2cccs2)s1	74 °C
Clc1ccc(C(c2ccccc2)(c2ccccc2)n2ccnc2)cc1	125 °C
CCNC(=O)C(C)(C)COc1cccc2nc(C)c(C(=O)O)c(N)c12	168 to 170 °C
COC(C)(C)c1ccc(Cl)c2nc3n(c12)CCCN3c1ccc(Cl)cc1Cl	203 to 204 °C
CC(=O)N1CCc2ccc(Cl)cc2C(c2ccc([N+](=O)[O-])cc2)=N1	227 to 229 °C
Nc1ccc(C(O)(Cc2ccccc2)c2ccccc2)cc1 (stereo not drawn)	105 to 107 °C
Cc1ccc(C=Cc2cccc(C#N)n2)cc1	137 to 138 °C
CCOC(=O)c1c(C)nc2sc(C)nc2c1NCCCN(C)C	53 to 54 °C
Cn1cc(-c2cncc(OC3SCC(O)C(O)C3O)c2)c(C(F)(F)F)n1 (stereo not drawn)	210 °C
CC1Cc2cc3c(cc2C(C=Cc2ccc(N)cc2)=NN1)OCO3 (stereo not drawn)	159 to 161 °C
c1ccc(CCc2ccc[nH]2)cc1	40 to 42 °C
CCCC(=O)Nc1n[nH]c2c(F)c(F)ccc12	191 °C
Cn1nc(-c2c(F)cccc2Cl)nc1C(C)(O)c1ccc(Cl)cc1 (stereo not drawn)	198 to 200 °C
C[C@@H]1C[C@](C)(O)[C@H](C)N1c1ccc(C#N)c(Cl)c1	132 to 133 °C
COc1c(Cl)ccnc1CO	64 to 66 °C

Compound	melting point
Cc1nnc2n1-c1ccc(Cl)cc1C(=S)NC2	298 to 303 °C
CC(O)=C(C#N)CC(=O)Nc1ccc(NC(=O)CBr)cc1	> 210 °C
O=S1(=O)c2ccc(F)cc2Oc2cc(OCC(F)(F)F)ccc21	160 to 161 °C
Clc1nc(-c2nnc(Oc3ccccc3)o2)[nH]c1Cl	109 °C
CC(C)(C)OC(=O)N1CCN(c2ccc(N)cc2C#N)CC1	145 °C
CCc1nc2c(N)nc3ccccc3c2n1CC1(O)CCN(C)CC1	233 to 234 °C
Oc1ccc(-c2nn(-c3cc(Cl)ccc3Cl)c3cc(O)ccc23)c(O)c1	78 to 80 °C
COC(=O)CSc1nc(SCc2c(Cl)cccc2Cl)ncc1[N+](=O)[O-]	155 to 158 °C
CCCCN1C(=O)NC(CO)C1=O (stereo not drawn)	93 °C
Cn1ncc2c1-c1c(S(C)(=O)=O)sc(S(=O)(=O)Cl)c1CC2	81 to 82 °C
Cc1nccc(N)c1N	170 to 171 °C
CC(C)c1c(-c2cc(C(F)(F)F)cc(C(F)(F)F)c2)ccc2nc(N)nc(N)c12	212 to 214 °C
CCc1cc2c(cc1N)N1CCCN=C1S2	210 °C
O=C1Nc2ccc(F)c(F)c2C1c1ncnc2c1cnn2C1CCCC1 (stereo not drawn)	> 300 °C
COc1ccc(I)cc1C(=O)O	150 to 152 °C
CC(C)(C)OC(=O)N1CCN(c2ccc([N+](=O)[O-])cc2)CC1	136 to 140 °C
CCCCNc1c(C(=O)OCC)c(C)nc(Cl)c1[N+](=O)[O-]	33 to 35 °C
CC(=O)OCC1OC(Oc2ccsc2Cc2ccc(OC(F)(F)F)cc2)C(OC(C)=O)C(OC(C)=O)C1OC(C)=O (stereo not drawn)	113 to 114 °C
O=C1c2cc(Br)sc2SCCN1CCCCCl	81 to 89 °C
CS(=O)(=O)OCCc1cc([N+](=O)[O-])ccc1COS(C)(=O)=O	88 to 89 °C
O=C1CC(=O)C(CCCCCCCO)C1=O (stereo not drawn)	121 to 124 °C
Clc1nc2c([nH]1)CCCCC2	214 to 215 °C
Cc1nc2ccccc2c(NCCO)c1Br	154 to 155 °C

More lines, now with the values ahead:

melting point	Compound
143 to 145 °C	O=[N+]([O-])c1ccc(-c2ncnn2-c2ccccc2F)cc1
181 °C	CC(=O)Nc1cc(C(C)(C)C)c(SC2=C(O)CC(CCc3ccc(O)cc3)(C3CCCC3)OC2=O)cc1C (racemic)
160 °C	COc1ccc(S(=O)(=O)N(CCn2ccnc2)c2ccc(Cl)cc2Cc2c(F)cccc2F)cc1OC
116 to 120 °C	Cc1c(F)cc(C(=O)NC2CC2)cc1-n1cc(Br)nc(NC2(c3ccccc3OCCN(C)C(=O)OCc3ccccc3)CC2)c1=O
206 to 210 °C	COc1cc2c(C)c(C#N)cnc2cc1OCc1cccnc1
73 to 75 °C	CN(C)C(=O)COC1c2ccccc2CCc2ccccc21
56 to 61 °C	c1ccc(COc2ccc([C@H]3CO3)cc2)cc1
109 to 111 °C	COc1ccc(C=O)cc1CN1C(=O)c2ccccc2C1=O
139 to 141 °C	COc1ccc(C(C)C)cc1-c1cc(C(=O)OCc2ccccc2)c(OCc2ccccc2)cc1OCc1ccccc1
93 to 94 °C	COc1ccc(CCCN(CCCc2ccc(OC)c(OC)c2)C(=O)N(C)O)cc1OC
260 °C	CN1C(=O)C(=O)NCC1(CCOC1CCCCO1)c1ccc(Cl)c(Cl)c1 (stereo not drawn)
274 to 280 °C	O=C1CCC(c2ccc(N=C(CCCc3ccccc3)c3ccc(O)cc3O)cc2)=NN1
177 to 178 °C	Cc1cc(NC(=O)C(CS)Cc2ccccc2)cc(C(=O)O)c1 (stereo not drawn)
142 to 145 °C	CC(C)c1nc(CCO)n(Cc2ccc([N+](=O)[O-])cc2)c1Sc1cc(Cl)cc(Cl)c1
180 to 185 °C	c1ccc2c(c1)c(-c1cc3nccnc3[nH]1)cn2CCCN1CCOCC1
200 °C	CC(C)(C)OC(=O)NC(C)(C)c1ccc(-c2nc(Nc3ccc(CCN4CCOCC4)cc3)ncc2C#N)cc1
277 °C	COc1ccc2c(c1)c1c3c(c(-c4ccccc4Cl)cc1n2CCC(=O)O)C(=O)NC3=O
190 to 194 °C	COC(=O)c1nc2n(n1)-c1ccc(Cl)cc1N(c1ccccc1)C2
75 °C	CCOC(=O)c1ccc(-c2cccc(-c3ccc4c(c3)C(C)(C)CCC4(C)C)c2OCOC)cc1
142 to 144 °C	O=C1N(Cc2ccc(Cl)s2)c2ccc(F)cc2C12COc1cc3c(cc12)OCO3 (stereo not drawn)
132 to 133 °C	O=C(O)C1Cc2cc(CCNS(=O)(=O)c3ccccc3)ccc2O1 (stereo not drawn)
126 to 129 °C	COc1ccc(C2=NN(CCCCCN3C(=O)c4ccccc4C3=O)C(=O)[C@H]3CC=CC[C@@H]23)cc1OC (relative stereo)
147 to 149 °C	COc1nc2ccccc2nc1NC(=O)N1CCN(c2ccccc2)CC1
150 to 151 °C	COC(=O)c1cccc(-c2nnc(-c3ccc(N4CCOCC4)cc3)o2)c1
184 to 187 °C	CCCc1c(OCc2ccc(Cc3nnn[nH]3)cc2)ccc(C(C)=O)c1O
271 to 273 °C	O=C1CCC(N2Cc3c(OCc4cc(Cl)cc(Cl)c4)cccc3C2=O)C(=O)N1 (stereo not drawn)

melting point	Compound
72 to 74 °C	O=C1c2ccccc2C(O)N1CCCO[N+](=O)[O-] (stereo not drawn)
65 to 67 °C	CCCCc1nn(-c2cc(C(=O)OC)ccc2Cl)c(=O)n1Cc1ccc(-c2ccccc2S(=O)(=O)NC(C)(C)C)cc1
94 to 96 °C	COc1cc(CNc2ccc(C)cc2)cc(OC)c1OC
186 to 187 °C	COc1ccc(S(=O)(=O)Oc2ccc3[nH]cc(C4CCN(C)CC4)c3c2)cc1
> 300 °C	O=C(NCCc1ccn(-c2cc3nc(C(=O)O)c(=O)[nH]c3cc2F)c1)Nc1ccc(C(=O)O)cc1
98 to 99 °C	N#Cc1ccc(-c2nc(COc3ccc(CCCn4ccnc4)cc3)co2)cc1
98 to 100 °C	CCOC(=O)c1c(C)cc2cnc(-c3ccccc3F)nc2c1C
304 to 306 °C	CC(C)(C(=O)O)c1ccc(C(=O)Nc2cn3cc(-c4ccsc4)ccc3n2)cc1
97 °C	COc1ccc(CN2C(=O)C(C)(c3cc(CO)ccc3Cl)c3cc(Cl)ccc32)c(OC)c1 (stereo not drawn)
175 to 176 °C	CN(C)C(=O)n1cc2c(n1)-c1ccc(Cl)cc1C(c1ccccc1Cl)=NC2
281 to 283 °C	O=c1[nH]c2ncc(-c3ccc(-c4n[nH]c(CN5CCOCC5)n4)cc3)nc2n1CC1CCOCC1
98 to 100 °C	Cc1c(SCCCSCC2CN(C)C(=O)O2)ccnc1CNc1cnc2ccccc2c1 (stereo not drawn)
178 to 180 °C	COc1cc(OC)c2c(=O)[nH]c(-c3ccc(OCCNC(C)C)c(-c4ccccc4S(C)(=O)=O)n3)nc2c1
108 °C	O=C1CCC(c2cccc(F)c2)(c2cccc(F)c2)[C@@H]2CN(C(=O)Cc3ccccc3)C[C@H]12 (racemic)
191 to 193 °C	O=C1COc2cc(CN3CCN(c4ccccc4)CC3)ccc2N1
165 to 166 °C	COc1ccc(Oc2ccc([N+](=O)[O-])cc2)c(Cl)c1Cl
169 to 171 °C	CCCCc1ncc(C=C2C(=O)Nc3ccccc32)n1Cc1ccc(C(=O)OCC)cc1
176 °C	O=C(c1ccc(Cl)cc1)c1cc(-c2ccncc2)c(N2CCOCC2)s1
158 to 160 °C	COc1cc(OC)cc(N2CCN(C(=O)Nc3cc(C(C)OC(=O)CCC(=O)O)c(C)nc3OC)CC2)c1 (stereo not drawn)
116 to 120 °C	CSCC(C)NC(=O)c1c(I)cccc1C(=O)Nc1ccc(C2(C(F)(F)F)CC(c3ccc(Cl)cc3)=NO2)cc1C (stereo not drawn)
177 to 178 °C	O=C(O)c1ccccc1-c1nc2cc(-c3ccccc3)ccc2s1
246 to 248 °C	O=P(O)(O)Cc1ccc(-c2ccccc2)cc1
160 to 162 °C	COc1ccc(/C=C/C(=O)C2C(=O)CC(c3ccc(OC)cc3)C([N+](=O)[O-])C2c2cccs2)cc1 (stereo not drawn)
74 to 75 °C	CS(=O)(=O)OCCCc1ccc(OCc2ccccc2)cc1
146 to 148 °C	CCN(CCOC)C(=O)C1=CC(c2ccccc2)C(=O)n2cc3cccc(Cl)c3c21 (stereo not drawn)
95 °C	O=C(C=C(c1ccccc1)N1CNc2cccnc21)OCCC(OCCCc1ccc(Cl)cc1)C(=O)O (stereo not drawn)
